The subject of series [1] is 320DM human colon cancer cells. The experiment in a line: DNA synthesis by [3H]-thymidine incorporation, 320DM cells. Type of series: cell-based. The note with it: for effect on DNA synthesis / growth: 30 to 3000 nM. How it is done: (§1) Cells were cultured in MEM supplemented with 10% FCS and antibiotics. Cells were grown to subconfluence and then treated with various hormones or agents as described by Somjen et al. (Somjen et al., 1998). The cells were characterized in terms of expression of mRNAs for estrogen […] by real time PCR, and the results are summarized in Table 1. N87, 320DM and H295R cells expressed mRNAs for both ERs. The ratio of ERα to ERβ was 1:8.5, 1:30 and 1:1.8 in N87, 320DM and H295R cells, respectively. Ovarian A2780 and prostate C4-24 cells expressed mainly mRNA for ERβ, and the ratio of ERβ to ERα was 300:1 and 70:1, respectively. MLS ovarian cells expressed mRNA only for ERβ. The ratio of ERα to ERβ in T47D cells has been reported to be 9:1.
[^3H]-Thymidine incorporation into DNA was used for the assessment of the various effects (proliferative or inhibitory) of various isoflavones, isoflavone derivatives and known cytotoxic drugs in the above-mentioned cells. Cells were grown until subconfluence using conditions described in Somjen et al. […] At the end of incubation, [^3H]-thymidine was added for two hours. Cells were then treated with 10% ice-cold trichloroacetic (TCA) for 5 min and washed twice with 5% TCA and then with cold ethanol. The cellular layer was dissolved in 0.3 ml of 0.3 M NaOH, aliquots were taken for counting radioactivity, and [^3H]-thymidine incorporation into DNA was calculated.
On the technique in general: Uptake of a labelled nucleoside into DNA is a usual measure of proliferation.

In series [2] the test system is MLS ovarian cancer cells. The experiment in a line: DNA synthesis by [3H]-thymidine incorporation, MLS cells. Type of series: cell-based, human. How it is done:
as §1
(§2) [^3H]-Thymidine incorporation into DNA was used for the assessment of the various effects (proliferative or inhibitory) of various isoflavones, isoflavone derivatives and known cytotoxic drugs in the above-mentioned cells. Cells were grown until subconfluence using conditions described in Somjen et al. (Somjen et al., 1998) and then treated with various agents for 24 or 48 h as indicated. At the end of incubation, [^3H]-thymidine was added for two hours. Cells were then treated with 10% ice-cold trichloroacetic (TCA) for 5 min and washed twice with 5% TCA and then with cold ethanol. The cellular layer was dissolved in 0.3 ml of 0.3 M NaOH, aliquots were taken for counting radioactivity, and [^3H]-thymidine incorporation into DNA was calculated.

In series [3] the test system is A2780 ovarian cancer cells. As to the kind of experiment: DNA synthesis by [3H]-thymidine incorporation, A2780 cells. The format is cell-based, human. As to conditions: for inhibition at 25 µM: read-out: inhibition of cell proliferation. How it is done: as §1, §2
Series [4] relates to H295R adrenocarcinoma cells. As to the kind of experiment: DNA synthesis by [3H]-thymidine incorporation, H295R cells. Type of series: cell-based, human. On the set-up: stimulation of DNA synthesis: concentration or dose not given beside the values. As to conditions: for inhibition at 3 µM: Homo sapiens, NCI-H295R, read-out: inhibition of DNA synthesis / growth. How it is done: as §1, §2

For series [5], the system named is human prostate C4-2B cancer cells. The experiment in a line: DNA synthesis by [3H]-thymidine incorporation, C4-2B cells. Type of series: cell-based. How it is done: as §1, §2
The test system of series [6] is Human umbilical vascular smooth muscle cells (VSMC). The experiment in a line: DNA synthesis by [3H]-thymidine incorporation, normal VSMC. Type of series: cell-based. As to conditions: for effect on DNA synthesis: at 300 nM. Here is the method:
Human umbilical vascular smooth muscle cells (VSMC) sensitive to estrogen, were grown in culture as described above, and used only at passages 1-3, when expression of smooth muscle actin was clearly demonstrable (Somjen et al. 2000). The ratio of the expression of mRNA for ERα to ERβ was 2.7:1.
as §2

Series [7] concerns N87 gastric carcinoma cells. The experiment in a line: DNA synthesis by [3H]-thymidine incorporation, N87 cells. The format is cell-based, human. Here is the method:
as §1, §2

The test system of series [8] is ERβ compared to ERα. The note with it: transfected cells; cited from earlier work.
In series [9] the test system is T47D mammary cancer cells. The experiment in a line: DNA synthesis by [3H]-thymidine incorporation, T47D cells. Type of series: cell-based, human. As to conditions: at 10 μM. How it is done: as §1, §2
Series [10] has as its system MLS ovarian xenografts. The experiment in a line: MLS ovarian xenografts in nude mice. Type of series: in vivo. The note with it: daunomycin iv 200 μg/mouse every other day. The text has this: Female CD1 nude mice (8-week old, ˜30 g) were housed and handled with free access to food and water in the animal facility according to the guidelines (1996) of the Institutional Animal Care and Use Committee of the Weizmann Institute of Science, Rehovot, Israel.
Thirty female nude mice (8 weeks old) were inoculated sub-cutaneously (sc) with MLS ovarian carcinoma cells (1.5×10^6/mouse). Ten days later, when the tumors were palpable, the mice were randomly divided into 3 groups (8-10 mice/group). The mice in each group were iv injected every other day either with a vehicle (Neowater, a solubilization enhancer, 0.1 ml), daunomycin dissolved in Neowater (200 μg/mouse in 0.1 ml vehicle, total dose during treatment 1 mg/mouse), or compound 9 dissolved in Neowater (400 μg/mouse in 0.1 ml vehicle, total dose during treatment 2 mg/mouse). During treatment, body weight was recorded to monitor toxicity of the treatment, and the tumors were measured with an external caliper. Tumor volume was calculated using the formula length×width×height×π/6. Statistical significance was assessed using student's t test, and differences were considered significant at p<0.05.

[11] abbreviates: ICI 182780 (1.1 μM) + E2 0.3 μM.
Setting [12] is: estradiol 30 nM + 1.1 μM ICI 182780.
[13] abbreviates: apoptosis inhibitor at 25 μM alone.

Molecules are shown by their SMILES. Residues, ends and D or L forms follow the SMILES beside them. *: point of attachment. Cbz = O=C(OCc1ccccc1)*; CH2F = FC*

On to `C[C@]12CC[C@@H]3c4ccc(O)cc4C[C@@H](CCCCCCCCC[S+]([O-])CCCC(F)(F)C(F)(F)F)[C@H]3[C@@H]1CC[C@@H]2O` (stereo partly shown) [ICI 182780, reference compound], for which the “DNA synthesis, ratio experimental/control (E/C)” value stood at 0.63 ± 0.08 in series [1] (ICI 182780 1.1 μM alone); 0.63 ± 0.08 in series [1] (ICI 182780 (1.1 μM) + E2 30 nM); 0.92 ± 0.18 in series [1] (setting [11]); 0.52 ± 0.12 in series [2] (ICI 182780 1.1 μM alone); 0.53 ± 0.11 in [2] (ICI 182780 (1.1 μM) + E2 30 nM); 0.95 ± 0.08 in series [2] (setting [11]). The “DNA synthesis (% of control)” value in series [1] (setting [12]) was determined as 63%; in series [1] (estradiol 300 nM + 1.1 μM ICI 182780), 92%; in series [2] (setting [12]) it was 53%; in series [2] (estradiol 0.3 μM + 1.1 μM ICI 182780), 95%.
On to `COC(=O)C[C@H](NC(=O)[C@H](C)NC(=O)[C@@H](NC(=O)OCc1ccccc1)C(C)C)C(=O)CF` [Z-VADFK, Z-VAD-FMK Me ester, reference compound] (Cbz-Val-Ala-Asp(OMe)-CH2F), for which the “DNA synthesis, ratio experimental/control (E/C)” value is 1.11 ± 0.08 in [1] (Z-VADFK 25 μM alone) and 1.06 ± 0.1 in [2] (Z-VADFK 25 μM alone). Besides, the “effect on DNA synthesis” value in [1] (setting [13]) and in series [2] (setting [13]) was “had no effect on DNA synthesis” throughout.
As for `COc1ccc(-c2c(CCCC(=O)NCCCCCCNC(=O)OC(C)(C)C)oc3cc(O)cc(O)c3c2=O)cc1` [Compound 7, 2-[3-carboxy-(6-tert-butoxycarbonylamino)-hexylamino-propyl]-7,5-dihydroxy-4′-methoxyisoflavone], the “effect on DNA synthesis / growth” value in series [1] is recorded as “inhibited significantly DNA synthesis”. Also, the “DNA synthesis, ratio experimental/control (E/C)” value in series [1] (compound at 3 μM) worked out at 0.22 ± 0.15; in [2] (compound at 3 μM), 0.05 ± 0.23; in series [3] (compound at 3 μM), 0.64 ± 0.16; in [4] (compound at 3 μM), 0.55 ± 0.03; in series [5] (compound at 0.3 μM), 0.41 ± 0.27; in [6] (compound at 3 μM), 0.74 ± 0.05. For the same compound, the inhibition at 3 µM in series [3] (Homo sapiens, at 3 μM, read-out: inhibition of DNA synthesis / growth) was 35%; in series [4] (at 3 μM), 40 to 45%. Also, in series [5] (Homo sapiens, at 30 nM), the inhibition at 0.03 µM is 10%. In addition, the inhibition at 0.3 µM in [5] (Homo sapiens, at 300 nM) amounted to 50%; in series [7] (Homo sapiens, at 300 nM, read-out: inhibition of cell growth), 40%. Also, in series [6] (Homo sapiens, at 3.3 μM), the inhibition at 3.3 µM worked out at 26%.
In the case of `O=C(O)CCCc1oc2cc(O)cc(O)c2c(=O)c1-c1ccc(O)cc1` [Compound 5, 2-(3-Carboxypropyl)-5,7,4′-trihydroxyisoflavone], the “effect on DNA synthesis / growth” value in series [1] is “significantly stimulated [^3H]-thymidine incorporation into DNA”. Besides, the “effect on DNA synthesis” value in series [5] (at 300 nM) is listed as “stimulated DNA synthesis”.
Consider `O=c1c(-c2ccc(O)cc2)coc2cc(O)cc(O)c12` [Compound 2, Genistein, reference compound], for which the “effect on [3H]-thymidine incorporation into DNA” value in series [1] (30 to 300 nM) was “significantly stimulated [^3H]-thymidine incorporation into DNA”. The inhibition at 25 µM in [3] (Homo sapiens) lay in the range of 30 to 40%. The “effect on DNA synthesis” value in series [5] (at 3 μM) is listed as “stimulated DNA synthesis significantly”. In addition, the “sensitivity for activating transcription via ERβ compared to ERα” value in series [8] is 100 fold.
Regarding `COc1ccc(-c2c(CCCC(=O)O)oc3cc(O)cc(O)c3c2=O)cc1` [Compound 4, 2-(3-carboxypropyl)-7,5-dihydroxy-4′-methoxyisoflavone], the “effect on DNA synthesis / growth” value in [1] is listed as “stimulated the DNA synthesis”. Also, the “stimulation of DNA synthesis” value in series [4] (concentration not given) was found to be 273%; in series [7] (at 300 nM), 50%. Besides, the “effect on DNA synthesis” value was “stimulated DNA synthesis” in series [5] (at 300 nM), “stimulated DNA synthesis” in [6] and “had no effect” in series [9].
Consider `N.N.O=C([O-])C1(C(=O)[O-])CCC1.[Pt+2]` [carboplatin, reference compound], for which the “inhibition of DNA synthesis / growth” value in [3] (at 3 μM) is 57%.
Consider `COc1cccc2c1C(=O)c1c(O)c3c(c(O)c1C2=O)C[C@@](O)(C(C)=O)C[C@@H]3O[C@H]1C[C@H](N)[C@H](O)[C@H](C)O1` [daunomycin, reference compound], for which the inhibition at 3 µM in [4] (at 3 μM) came to 75%. The “reduction in mean body weight” value in [10] is recorded as 15%. Moreover, the deaths caused in series [10] (8-10 mice/group) is 2 mice.
Regarding `C[C@]12CC[C@@H]3c4ccc(O)cc4CC[C@H]3[C@@H]1CC[C@@H]2O` [Compound E2, estradiol 17β, reference compound], the “DNA synthesis, ratio experimental/control (E/C)” value in series [1] (E2 30 nM alone (Table 3)) amounted to 2.06 ± 0.09; in [1] (E2 0.3 μM alone) it was 1.87 ± 0.18; in series [1] (E2 at 30 nM (Table 2)), 1.64 ± 0.13; in [2] (E2 30 nM alone (Table 3)), 2.35 ± 0.06; in series [2] (E2 0.3 μM alone), 1.70 ± 0.15; in series [2] (E2 at 30 nM (Table 2)) it was 1.39 ± 0.03. Moreover, the “DNA synthesis, ratio experimental/control (E/C)” value is 1.42 ± 0.10 in series [3] (E2 at 30 nM), 2.10 + .10 in [4] (E2 at 30 nM), 2.10 ± 0.10 in series [5] (E2 at 30 nM) and 0.55 ± 0.12 in [6] (E2 at 30 nM). The activity at 0.03 µM turned out to be 206% in series [1] (Homo sapiens, estradiol 30 nM, read-out: [3H]-thymidine incorporation (% of control)) and 235% in [2] (Homo sapiens, estradiol 30 nM, read-out: DNA synthesis (% of control)). Moreover, the activity at 0.3 µM in [2] (Homo sapiens, estradiol 0.3 μM, read-out: DNA synthesis (% of control)) was 187%.
Turning to `O=c1c(-c2ccc(O)cc2)coc2cc(O)ccc12` [Compound 3, Daidzein, reference compound], in series [3] (Homo sapiens), the inhibition at 25 µM lay within 30 to 40%. Further, the figures for the “effect on DNA synthesis” value in series [5] (at 3 μM), in series [6] and in [9] were “stimulated DNA synthesis significantly”, “stimulated DNA synthesis” and “stimulated DNA synthesis”, respectively. Besides, the “sensitivity for activating transcription via ERβ compared to ERα” value in [8] is reported as 100 fold.
On to `COc1ccc(-c2coc3cc(O)cc(O)c3c2=O)cc1` [Compound 1, Biochanin A, reference compound], for which, in series [1], the “effect on DNA synthesis / growth” value is “had no effect on growth”. Moreover, the “effect on DNA synthesis” value in series [4] (at 3 μM) is “had no effect on DNA synthesis”; in series [5] (at 3 μM), “stimulated DNA synthesis significantly”; in series [6] it was “stimulated DNA synthesis”; in [7] (at 3 μM) it was “had no effect”; in series [9] it was “stimulated DNA synthesis”.
For `O=C(O)COc1ccc2c(=O)c(-c3ccc(O)cc3)coc2c1` [Compound 6, 7-(O)-Carboxymethyl daidzein, reference compound], the “effect on DNA synthesis” value in series [5] (at 300 nM), in [6] and in [9] was “stimulated DNA synthesis” in each case.

(Values after patent US8338624B2, “Isoflavone derivatives and uses thereof” (Yeda Research and Development Co., Ltd., priority 2007, dated 2012).)
